According to US4362746A (priority 1981, dated 1982):
Where a name gives a salt, the structure may show the parent alone. Read-outs that look alike come from different tables or passages of the source.

Experiments:
[1] = U.S. Pat. Nos. 3,932,512 and 4,046,811; cited from earlier work
[2] = system: influenza virus A2 /Aichi/2/68; assay type: in vivo, mice (Charles River, random bred white, female); details: for Mean Survival Time / Survival % / Survival N (surviving animals / total infected) / Mean Survival Time Increase: 16 days; for Mean Survival Time Increase: vs virus only
in vivo [3] = details: mouse
G-2 cells = details: human, g-2 cells
in vitro = details: human, g-2 cells
Influenza B/MASS/66 = assay: In vitro anti-myxovirus assay, inhibition of hemadsorption, Influenza B/MASS/66 in G-2 cells; assay type: cell-based; details: Influenza B virus, 56 TCID50
Method: In preparing the compounds for testing, they were handled aseptically throughout. The compounds were dissolved in a minimum amount of a suitable solvent and the final dilutions were made up to the required volume in a complete culture medium used in assay and in concentration not exceeding the predetermined maximum non-toxic levels.
The antiviral assays were done in tissue cultures infected with an appropriate dose of an influenza virus.
The cell culture used in all in vitro anti-myxovirus assays was an established cell line of the human conjunctiva (G-2 cells). The cytotoxic studies of each of the compounds were performed prior to testing for antiviral activity to determine level of response of the cells to the potentially toxic action of the compounds.
For the antiviral assays the cells were grown in triplicates per dilution of compound in test tubes in a suitable medium. Immediately before use the initial medium was replaced with the one containing the test compound in an appropriate concentration. After virus was added at approximately 10 and 100 TCID50 dose levels the infected culture was incubated at 32° C. for a number of days. The medium was then drained, red blood cells added and after washing, the extent of hemadsorption evaluated. The percentage of inhibition of adsorption (a measure of antiviral activity) was then calculated. In all anti-myxovirus testing in vitro, as well as in vivo, amantadine (a known antiviral agent) was used as a reference standard.

mice [4] = assay: Subacute toxicity in mice; details: for Subacute LD0 (non-lethal dose): once a day, seventeenth day of treatment
[5] = Subacute toxicity in mice; details: mouse, in vivo
in vivo [6] = details: mouse; remark: listed apart in the source
Influenza A2 /MTL/68 = assay: In vitro anti-myxovirus assay, inhibition of hemadsorption, Influenza A2/MTL/68 in G-2 cells; assay type: cell-based, Influenza A2 /Montreal/68; details: for inhibition at 5 µg/mL: 5 ug/ml; for inhibition at 10 µg/mL: 10 ug/ml; for inhibition at 25 µg/mL: 25 ug/ml; for inhibition at 33 µg/mL: 33 ug/ml; for inhibition at 50 µg/mL: 50 ug/ml
mice [7] = assay: Acute toxicity in mice; details: after 24 hours
Acute toxicity in mice = details: mouse, in vivo
[8] = system: Influenza A/Swine/1976/31; assay: microbe, parasite or virus in culture; assay type: cell-based; details: in Sus scrofa
[9] = Exp. 2, virus dose 2.0 LD50, 300 mg/kg/day IP
[10] = Exp. 3, virus dose 2.6 LD50, 200 mg/kg/day IP
[11] = Exp. 4, virus dose 3.0 LD50, 200 mg/kg/day IP

In the case of N[C@H]1C[C@H]2C[C@@H]1c1ccccc12 (relative stereo) [isomer with the amino substituent taking up the exo configuration], the antiviral activity [1] is given as “showed no antiviral activity”.

For N[C@@H]1C[C@H]2C[C@@H]1c1ccccc12 (relative stereo) [1,2,3,4-tetrahydro-1,4-methanonaphthalen-endo-2-amine], the antiviral activity [1] is given as “exhibited antiviral activity”.

With CN(C)C[C@H]1[C@@H](N)[C@@H]2C[C@H]1c1ccccc12 (relative stereo) [Compound B, endo-3-dimethylaminomethyl-endo-2-amino-1,2,3,4-tetrahydro-1,4-methanonaphthalene dihydrochloride] the “Mean Survival Time” value [2, 9] was 14.5 days, the Survival % [2, 9] was 70% and the “Survival N (surviving animals / total infected)” value [2, 9] was 14/20. The “Mean Survival Time Increase” value [2, 9] was “+2.1 Days”, the “Mean Survival Time” value [2, 10] was 13.2 days and the Survival % [2, 10] was 40%. The “Survival N (surviving animals / total infected)” value [2, 10] was 8/20, the “Mean Survival Time Increase” value [2, 10] was “+2.1 Days” and the “Mean Survival Time” value [2, 11] was 13.5 days. The Survival % [2, 11] was 45%, the “Survival N (surviving animals / total infected)” value [2, 11] was 9/20 and the “Mean Survival Time Increase” value [2, 11] was “+2.2 Days”. The “antiviral effect against influenza virus infection” value ([2]; administered intraperitoneally, […]) was “significant antiviral effect”, the NOAEL at 24 h (in vivo [3]; ip) was greater than 750 mg/kg/day and the NOAEL at 24 h (in vivo [3]; po) was greater than 750 mg/kg/day. For the same molecule, the “Cytotoxicity CTD50” value (G-2 cells) was greater than 100 µg/mL, the MNTC (in vitro; Cytotoxicity CTD0, maximal non-toxic concentration) was 50 µg/mL and the CC50 (in vitro; Cytotoxicity CTD50) was 100 µg/mL. The inhibition at 10 µg/mL (Influenza B/MASS/66; 10 ug/ml) was 0%, the inhibition at 25 µg/mL (Influenza B/MASS/66; 25 ug/ml) was 17% and the inhibition at 33 µg/mL (Influenza B/MASS/66; 33 ug/ml) was 43%. For the same molecule, the inhibition at 50 µg/mL (Influenza B/MASS/66; 50 ug/ml) was 73%, the “Subacute LD0 (non-lethal dose)” value (mice [4]; IP) was 450 mg/kg/day and the “Subacute LD0 (non-lethal dose)” value (mice [4]; PO) was greater than 750 mg/kg/day. The “clinical sign of toxicity (weight)” value (mice [4]; PO, subacute, at TD0 750) was “Slight loss of weight”, the LD50 at 408 h ([5]; ip) was 500 mg/kg and the LD50 at 408 h ([5]; po) was greater than 750 mg/kg. For the same molecule, the NOAEL at 408 h (in vivo [6]; ip) was 400 mg/kg/day, the NOAEL at 408 h (in vivo [6]; po) was 750 mg/kg/day and the inhibition at 5 µg/mL (Influenza A2 /MTL/68; 32 TCID50) was 0%. The inhibition at 10 µg/mL (Influenza A2 /MTL/68; 32 TCID50) was 30%, the inhibition at 25 µg/mL (Influenza A2 /MTL/68; 32 TCID50) was 78% and the inhibition at 33 µg/mL (Influenza A2 /MTL/68; 32 TCID50) was 93%. For the same molecule, the inhibition at 50 µg/mL (Influenza A2 /MTL/68; 32 TCID50) was 93%, the inhibition at 5 µg/mL (Influenza A2 /MTL/68; 316 TCID50) was 0% and the inhibition at 10 µg/mL (Influenza A2 /MTL/68; 316 TCID50) was 0%. It also gave an inhibition at 25 µg/mL (Influenza A2 /MTL/68; 316 TCID50) of 70%, an inhibition at 33 µg/mL (Influenza A2 /MTL/68; 316 TCID50) of 76% and an inhibition at 50 µg/mL (Influenza A2 /MTL/68; 316 TCID50) of 83%. The “Acute LD0 (non-lethal dose)” value (mice [7]; IP) was 450 mg/kg/day, the “Acute LD0 (non-lethal dose)” value (mice [7]; PO) was greater than 750 mg/kg/day and the LD50 at 24 h (Acute toxicity in mice; ip) was 550 mg/kg. The LD50 at 24 h (Acute toxicity in mice; po) was greater than 750 mg/kg, the inhibition at 5 µg/mL ([8]; 316 TCID50, 5 ug/ml) was 0% and the inhibition at 10 µg/mL ([8]; 316 TCID50, 10 ug/ml) was 70%. For the same molecule, the inhibition at 25 µg/mL ([8]; 316 TCID50, 25 ug/ml) was 92% and the inhibition at 33 µg/mL ([8]; 316 TCID50, 33 ug/ml) was 100%.
